Results taken from patent publication US12624018B1, “Inhibitors of RIPK2 and medical uses thereof” (Odyssey Therapeutics, Inc., priority 2022, dated 2026).

biological target: T1, RIPK2 enzyme (Homo sapiens, UniProt O43353); test: RIPK2 inhibition (ADP-Glo Kinase Assay); assay type: biochemical; details: RIPK2 5 nM, ATP 150 μM, MBP substrate, read-out: RIPK2 IC50
T1 construct: purchased Carna 09-128
Outline: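 Human RIPK2 (5 nM) preincubated with compound 30 min at room temperature in 50 mM HEPES pH 7.5, 10 mM MgCl2, 2 mM DTT, 1 mM EGTA, 0.01% Brij-35, 0.05% BSA; native swine MBP as substrate. ADP formed quantified by ADP-Glo luminescence; percent inhibition relative to DMSO and no-enzyme controls.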

T1 sequence (O43353 1-299 limits assumed): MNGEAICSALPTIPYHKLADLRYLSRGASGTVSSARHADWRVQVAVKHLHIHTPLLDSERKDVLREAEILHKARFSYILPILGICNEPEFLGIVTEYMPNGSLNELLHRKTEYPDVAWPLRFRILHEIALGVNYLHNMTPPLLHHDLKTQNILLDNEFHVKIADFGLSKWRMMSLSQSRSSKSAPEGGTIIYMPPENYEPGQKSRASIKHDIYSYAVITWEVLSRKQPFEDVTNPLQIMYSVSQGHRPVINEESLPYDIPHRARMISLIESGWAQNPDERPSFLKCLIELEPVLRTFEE

| Compound | IC50 [nM] |
| --- | --- |
| CC(C)(C)n1cc(NC(=O)Cc2ccc(Oc3ccnc4ccc(S(=O)(=O)C5CC5)cc34)c(C(F)F)c2)cn1 [Compound 418, N-(1-(tert-butyl)-1H-pyrazol-4-yl)-2-(4-((6-(cyclopropyl-sulfonyl)quinolin-4-yl)oxy)-3-(difluoromethyl)phenyl)acetamide] | < 2.5 |
| Cc1cc(CC(=O)Nc2cnn(C(C)(C)C)c2)c(F)cc1Oc1ccnc2ccc(CN3CCNCC3)cc12 [Compound 419, N-(1-(tert-butyl)-1H-pyrazol-4-yl)-2-(2-fluoro-5-methyl-4-((6-(piperazin-1-ylmethyl)quinolin-4-yl)oxy)phenyl)acetamide] | < 2.5 |
| Cc1cc(CC(=O)Nc2cnn(C(C)(C)C)c2)c(F)cc1Oc1ccnc2ccc(CN3C[C@@H]4C[C@H]3CN4)cc12 [Compound 420, 2-(4-((6-(((1S,4S)-2,5-diazabicyclo[2.2.1]heptan-2-yl)methyl)quinolin-4-yl)oxy)-2-fluoro-5-methylphenyl)-N-(1-(tert-butyl)-1H-pyrazol-4-yl)acetamide] | < 2.5 |
| Cc1cc(CC(=O)Nc2cnn(C(C)(C)C)c2)c(F)cc1Oc1ccnc2ccc(CN3C[C@H]4C[C@@H]3CN4)cc12 [Compound 421, 2-(4-((6-(((1R,4R)-2,5-diazabicyclo[2.2.1]heptan-2-yl)methyl)quinolin-4-yl)oxy)-2-fluoro-5-methylphenyl)-N-(1-(tert-butyl)-1H-pyrazol-4-yl)acetamide] | < 2.5 |
| Cc1cc(CC(=O)Nc2cnn(C(C)(C)C)c2)c(F)cc1Oc1ccnc2ccc(CN3C[C@@H]4C[C@H]3CO4)cc12 [Compound 422, 2-(4-((6-(((1S,4S)-2-oxa-5-azabicyclo[2.2.1]heptan-5-yl)methyl)quinolin-4-yl)oxy)-2-fluoro-5-methylphenyl)-N-(1-(tert-butyl)-1H-pyrazol-4-yl)acetamide] | < 2.5 |
| Cc1cc(CC(=O)Nc2cnn(C(C)(C)C)c2)c(F)cc1Oc1ccnc2ccc(CN3C[C@H]4C[C@@H]3CO4)cc12 [Compound 423, 2-(4-((6-(((1R,4R)-2-oxa-5-azabicyclo[2.2.1]heptan-5-yl)methyl)quinolin-4-yl)oxy)-2-fluoro-5-methylphenyl)-N-(1-(tert-butyl)-1H-pyrazol-4-yl)acetamide] | < 2.5 |
| Cc1cc(CC(=O)Nc2cnn(C(C)(C)C)c2)c(F)cc1Oc1ccnc2ccc(-c3ncccn3)cc12 [Compound 424, N-(1-(tert-butyl)-1H-pyrazol-4-yl)-2-(2-fluoro-5-methyl-4-((6-(pyrimidin-2-yl)quinolin-4-yl)oxy)phenyl)acetamide] | < 2.5 |
| Cc1cc(CC(=O)Nc2cnn(C(C)(C)C)c2)c(F)cc1Oc1ccnc2ccc(-c3cnccn3)cc12 [Compound 425, N-(1-(tert-butyl)-1H-pyrazol-4-yl)-2-(2-fluoro-5-methyl-4-((6-(pyrazin-2-yl)quinolin-4-yl)oxy)phenyl)acetamide] | < 2.5 |
| Cc1cc(CC(=O)Nc2cnn(C(C)(C)C)c2)c(F)cc1Oc1ccnc2ccc(-c3cccnn3)cc12 [Compound 426, N-(1-(tert-butyl)-1H-pyrazol-4-yl)-2-(2-fluoro-5-methyl-4-((6-(pyridazin-3-yl)quinolin-4-yl)oxy)phenyl)acetamide] | < 2.5 |
| Cc1cc(CC(=O)Nc2cnn(C(C)(C)C)c2)c(F)cc1Oc1ccnc2ccc(-c3ncn(C)n3)cc12 [Compound 427, N-(1-(tert-butyl)-1H-pyrazol-4-yl)-2-(2-fluoro-5-methyl-4-((6-(1-methyl-1H-1,2,4-triazol-3-yl)quinolin-4-yl)oxy)phenyl)acetamide] | < 2.5 |
| Cc1cc(CC(=O)Nc2cnn(C(C)(C)C)c2)c(F)cc1Oc1ccnc2ccc(-c3ncnn3C)cc12 [Compound 428, N-(1-(tert-butyl)-1H-pyrazol-4-yl)-2-(2-fluoro-5-methyl-4-((6-(1-methyl-1H-1,2,4-triazol-5-yl)quinolin-4-yl)oxy)phenyl)acetamide] | < 2.5 |
| CCS(=O)(=O)c1ccc2nccc(Oc3cc(F)c(CC(=O)Nc4cnn(C(C)(C)C)c4)cc3Cl)c2c1 [Compound 430, N-(1-(tert-butyl)-1H-pyrazol-4-yl)-2-(5-chloro-4-((6-(ethylsulfonyl)quinolin-4-yl)oxy)-2-fluorophenyl)acetamide] | < 2.5 |
| Cc1cc(CC(=O)Nc2nnc(C(C)(C)C)o2)ccc1Oc1ccnc2ccc(S(C)(=O)=O)cc12 [Compound 431, N-(5-(tert-butyl)-1,3,4-oxadiazol-2-yl)-2-(3-methyl-4-((6-(methylsulfonyl)quinolin-4-yl)oxy)phenyl) acetamide] | < 2.5 |
| CC(C)(C)n1cc(NC(=O)Cc2ccc(Oc3ccnc4ccc(S(C)(=O)=O)cc34)c(C#N)c2)cn1 [Compound 432, N-(1-(tert-butyl)-1H-pyrazol-4-yl)-2-(3-cyano-4-((6-(methylsulfonyl)quinolin-4-yl)oxy)phenyl)acetamide] | 2.8 |
| Cc1cc(CC(=O)Nc2cnn(C(C)(C)C)c2)c(F)cc1Oc1ccnc2ccc(C(C)(C)O)cc12 [Compound 433, N-(1-(tert-butyl)-1H-pyrazol-4-yl)-2-(2-fluoro-4-((6-(2-hydroxypropan-2-yl)quinolin-4-yl)oxy)-5-methylphenyl)acetamide] | < 2.5 |
| Cc1cc(CC(=O)Nc2cnn(C(C)(C)C)c2)c(F)cc1Oc1ncnc2ccc(C(N)=O)cc12 [Compound 434, 4-(4-(2-((1-(tert-butyl)-1H-pyrazol-4-yl)amino)-2-oxoethyl)-5-fluoro-2-methylphenoxy)quinazoline-6-carboxamide] | 3 |
| CNC(=O)c1cc2c(Oc3cc(F)c(CC(=O)Nc4cnn(C(C)(C)C)c4)cc3C)ccnc2cc1F [Compound 435, 4-(4-(2-((1-(tert-butyl)-1H-pyrazol-4-yl)amino)-2-oxoethyl)-5-fluoro-2-methylphenoxy)-7-fluoro-N-methylquinoline-6-carboxamide] | < 2.5 |
| COc1cc2nccc(Oc3cc(F)c(CC(=O)Nc4cnn(C(C)(C)C)c4)cc3C)c2cc1C(N)=O [Compound 436, 4-(4-(2-((1-(tert-butyl)-1H-pyrazol-4-yl)amino)-2-oxoethyl)-5-fluoro-2-methylphenoxy)-7-methoxyquinoline-6-carboxamide] | < 2.5 |
| CNC(=O)c1cc2c(Oc3cc(F)c(CC(=O)Nc4cnn(C(C)(C)C)c4)cc3C)ccnc2cc1OC [Compound 437, 4-(4-(2-((1-(tert-butyl)-1H-pyrazol-4-yl)amino)-2-oxoethyl)-5-fluoro-2-methylphenoxy)-7-methoxy-N-methylquinoline-6-carboxamide] | < 2.5 |
| Cc1cc(CC(=O)Nc2cnn(C(C)(C)C)c2)c(F)cc1Oc1ncnc2cc(F)c(C(N)=O)cc12 [Compound 438, 4-(4-(2-((1-(tert-butyl)-1H-pyrazol-4-yl)amino)-2-oxoethyl)-5-fluoro-2-methylphenoxy)-7-fluoroquinazoline-6-carboxamide] | 3.5 |
| COc1cc2ncnc(Oc3cc(F)c(CC(=O)Nc4cnn(C(C)(C)C)c4)cc3C)c2cc1C(N)=O [Compound 439, 4-(4-(2-((1-(tert-butyl)-1H-pyrazol-4-yl)amino)-2-oxoethyl)-5-fluoro-2-methylphenoxy)-7-methoxyquinazoline-6-carboxamide] | < 2.5 |
| CNC(=O)c1cc2c(Oc3cc(F)c(CC(=O)Nc4cnn(C(C)(C)C)c4)cc3C)ncnc2cc1OC [Compound 440, 4-(4-(2-((1-(tert-butyl)-1H-pyrazol-4-yl)amino)-2-oxoethyl)-5-fluoro-2-methylphenoxy)-7-methoxy-N-methylquinazoline-6-carboxamide] | < 2.5 |
| Cc1c(Oc2ccnc3ccc(C(O)CO)cc23)ccc(CC(=O)Nc2cnn(C(C)(C)C)c2)c1F (centres unmarked) [Compound 444, N-(1-(tert-butyl)-1H-pyrazol-4-yl)-2-(4-((6-(1,2-dihydroxyethyl)quinolin-4-yl)oxy)-2-fluoro-3-methylphenyl)acetamide] | < 2.5 |
| Cc1cc(CC(=O)Nc2cnn(C(C)(C)C)c2)cc(C)c1Oc1ccnc2ccc(S(C)(=O)=O)cc12 [Compound 445, N-(1-(tert-butyl)-1H-pyrazol-4-yl)-2-(3,5-dimethyl-4-((6-(methylsulfonyl)quinolin-4-yl)oxy)phenyl)acetamide] | < 2.5 |
| Cc1cc(Oc2ccnc3ccc(S(C)(=O)=O)cc23)c(C)cc1CC(=O)Nc1cnn(C(C)(C)C)c1 [Compound 446, N-(1-(tert-butyl)-1H-pyrazol-4-yl)-2-(2,5-dimethyl-4-((6-(methylsulfonyl)quinolin-4-yl)oxy)phenyl)acetamide] | 21.4 |
| Cc1cc(CC(=O)Nc2cnn(C(C)(C)C)c2)cc(F)c1Oc1ncnc2ccc(C(N)=O)cc12 [Compound 447, 4-(4-(2-((1-(tert-butyl)-1H-pyrazol-4-yl)amino)-2-oxoethyl)-2-fluoro-6-methylphenoxy)quinazoline-6-carboxamide] | < 2.5 |
| COC1CN(C(=O)c2ccc3nccc(Oc4cc(F)c(CC(=O)Nc5cnn(C(C)(C)C)c5)cc4C)c3c2)C1 [Compound 448, N-(1-(tert-butyl)-1H-pyrazol-4-yl)-2-(2-fluoro-4-((6-(3-methoxyazetidine-1-carbonyl)quinolin-4-yl)oxy)-5-methylphenyl)acetamide] | < 2.5 |
| Cc1cc(CC(=O)Nc2cnn(C(C)(C)C)c2)c(F)cc1Oc1ccnc2ccc(C(=O)N3CCC(N)C3)cc12 (centres unmarked) [Compound 449, 2-(4-((6-(3-aminopyrrolidine-1-carbonyl)quinolin-4-yl)oxy)-2-fluoro-5-methylphenyl)-N-(1-(tert-butyl)-1H-pyrazol-4-yl)acetamide] | < 2.5 |
| Cc1cc(CC(=O)Nc2cnn(C(C)(C)C)c2)c(F)cc1Oc1ccnc2ccc(C(=O)N3[C@H](C)CCC[C@@H]3C)cc12 [Compound 450, N-(1-(tert-butyl)-1H-pyrazol-4-yl)-2-(4-((6-((2S,6R)-2,6-dimethylpiperidine-1-carbonyl)quinolin-4-yl)oxy)-2-fluoro-5-methylphenyl)acetamide] | < 2.5 |
